Reference: ChEMBL document CHEMBL1128632, “The discovery of a series of new non-indole 5HT1D agonists” (Bioorg Med Chem Lett, 1995)
One block for each compound: values may come before it.

Tests used:
[1] = molecular target: T1, 5-hydroxytryptamine receptor 1A (Homo sapiens, UniProt P08908); assay: Ability to bind to 5-hydroxytryptamine 1A receptor subtype from cloned human expressed in Ha7 cells; type: cell-based
T1 sequence (P08908 whole entry): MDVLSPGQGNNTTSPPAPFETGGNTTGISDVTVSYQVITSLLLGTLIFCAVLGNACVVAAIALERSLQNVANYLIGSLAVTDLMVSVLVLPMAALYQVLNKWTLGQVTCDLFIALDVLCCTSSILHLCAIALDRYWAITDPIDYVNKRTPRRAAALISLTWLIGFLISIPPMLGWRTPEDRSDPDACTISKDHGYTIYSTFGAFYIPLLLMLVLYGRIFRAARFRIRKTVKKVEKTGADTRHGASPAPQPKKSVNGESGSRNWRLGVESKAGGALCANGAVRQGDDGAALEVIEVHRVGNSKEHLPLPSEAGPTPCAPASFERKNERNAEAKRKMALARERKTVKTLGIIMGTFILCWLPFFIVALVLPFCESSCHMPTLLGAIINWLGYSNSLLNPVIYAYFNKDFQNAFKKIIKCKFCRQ

Canis familiaris = species on record: Canis familiaris; assay: Effective dose required to induce constriction of dog saphenous vein segments; type: functional; conditions: Canis lupus familiaris, read-out: ED50 (the source's name)
[2] = molecular target: T1, 5-hydroxytryptamine receptor 1A; assay: Ability to bind to 5-hydroxytryptamine 1A receptor from cloned human expressed in Ha7 cells; type: cell-based
Sus scrofa [3] = species on record: Sus scrofa; assay: Ability to induce constriction of pig basilary artery; type: functional; conditions: read-out: ED50 (the source's name)
Sus scrofa [4] = species on record: Sus scrofa; assay: Ability to induce constriction of pig basilary artery.; type: functional; conditions: read-out: ED50 (the source's name)

SMILES: c1ccc2c(c1)CC(CNCCCNC1=NCCCN1)CO2 (stereo not given)
IC50 [2]: > 1000 nM
EC50 (Canis familiaris): > 1000 nM

SMILES: CNS(=O)(=O)Cc1ccc2[nH]cc(CCN(C)C)c2c1
EC50 (Sus scrofa [3]): 558 nM
EC50 (Canis familiaris): 160 nM

SMILES: COc1ccc2c(c1)CCC(CNCCCNC1=NCCCN1)O2 (stereo not given)
IC50 [1]: > 1000 nM
EC50 (Canis familiaris): > 1000 nM

SMILES: c1ccc2c(c1)CCC(CNCCCNc1ccncn1)O2 (stereo not given)
IC50 [2]: 5.01 nM
EC50 (Canis familiaris): 78.7 nM

SMILES: c1ccc2c(c1)CC(CNCCCNC1=NCCCN1)O2 (stereo not given)
IC50 [2]: 50.1 nM
EC50 (Canis familiaris): > 1000 nM

SMILES: c1ccc2c(c1)CCC(CNCCCNC1=NCCN1)O2 (stereo not given)
IC50 [2]: 12.6 nM
EC50 (Canis familiaris): 31.5 nM

SMILES: CN1c2ccccc2CCC1CNCCCNC1=NCCCN1 (stereo not given)
IC50 [2]: > 1000 nM
EC50 (Canis familiaris): > 1000 nM

SMILES: CC1(CNCCCNC2=NCCCN2)CCc2ccccc2O1 (stereo not given)
IC50 [2]: > 1000 nM
EC50 (Canis familiaris): > 1000 nM

SMILES: c1ccc(NCCCNCC2CCc3ccccc3O2)nc1 (stereo not given)
IC50 [2]: 1.26 nM
EC50 (Canis familiaris): 380 nM

SMILES: c1ccc2c(c1)CCC(CNCCCNc1nccs1)O2 (stereo not given)
IC50 [2]: 1.58 nM
EC50 (Canis familiaris): 570 nM

SMILES: c1ccc2c(c1)CCC(CNCCCNc1nc3ccccc3[nH]1)O2 (stereo not given)
IC50 [2]: > 100 nM
EC50 (Canis familiaris): > 1000 nM

SMILES: c1cnc(NCCNCC2CCc3ccccc3O2)nc1 (stereo not given)
IC50 [2]: 31.6 nM
EC50 (Canis familiaris): 60 nM

SMILES: O=C1CCCN=C(NCCCNCC2CCc3ccccc3O2)N1 (stereo not given)
IC50 [2]: 2 nM
EC50 (Canis familiaris): > 1000 nM

SMILES: c1ccc2c(c1)CCCC(CNCCCNC1=NCCCN1)O2 (stereo not given)
IC50 [2]: > 1000 nM
EC50 (Canis familiaris): > 1000 nM

SMILES: c1ccc2c(c1)CC[C@@H](CNCCCNC1=NCCCN1)O2
IC50 [2]: 50.1 nM
EC50 (Canis familiaris): 51.5 nM

SMILES: c1ccc2c(c1)OCC(CNCCCNC1=NCCCN1)O2 (stereo not given)
IC50 [2]: 20 nM
EC50 (Canis familiaris): 66.5 nM

SMILES: c1cnc(NCCCNCC2CCc3ccccc3O2)nc1 (stereo not given)
IC50 [2]: 2 nM
EC50 (Canis familiaris): > 100 nM

SMILES: COc1cccc2c1CCC(CNCCCNC1=NCCCN1)O2 (stereo not given)
IC50 [1]: > 1000 nM
EC50 (Canis familiaris): > 1000 nM

SMILES: c1ccc2c(c1)CCC(CNCCNC1=NCCCN1)O2 (stereo not given)
IC50 [1]: 15.8 nM
EC50 (Canis familiaris): 49.4 nM

SMILES: c1ccc2c(c1)CCC(CNCCCNC1=NCCCN1)C2 (stereo not given)
IC50 [2]: 126 nM
EC50 (Canis familiaris): 615 nM

SMILES: c1ccc2c(c1)NCC(CNCCCNC1=NCCCN1)O2 (stereo not given)
IC50 [2]: > 1000 nM
EC50 (Canis familiaris): > 1000 nM

SMILES: CC(C)/N=C(\NC#N)NCCCNCC1CCc2ccccc2O1 (stereo not given)
IC50 [2]: 15.8 nM
EC50 (Canis familiaris): 115 nM

SMILES: Clc1ccc(NCCCNCC2CCc3ccccc3O2)nn1 (stereo not given)
IC50 [2]: 0.398 nM
EC50 (Canis familiaris): > 100 nM

These reach a lower EC50 (Canis familiaris). Values come first.

IC50 [1]: 12.6 nM
EC50 (Canis familiaris): 17.8 nM
SMILES: COc1ccc2c(c1)OC(CNCCCNC1=NCCCN1)CC2 (stereo not given)

IC50 [1]: 5.01 nM
EC50 (Canis familiaris): 15.2 nM
SMILES: c1ccc2c(c1)CCC(CNCCCCCNC1=NCCCN1)O2 (stereo not given)

IC50 [2]: 3.98 nM
EC50 (Canis familiaris): 15.5 nM
SMILES: c1ccc2c(c1)CCC(CNCCCNc1cnccn1)O2 (stereo not given)

IC50 [2]: 6.31 nM
EC50 (Canis familiaris): 17 nM
SMILES: c1ccc2c(c1)CCC(CNCCCNC1=NCCCC1)O2 (stereo not given)

IC50 [1]: 7.94 nM
EC50 (Canis familiaris): 4.8 nM
SMILES: CC(C)/N=C(\N)NNCCCNCC1CCc2ccccc2O1 (stereo not given)

IC50 [1]: 25.1 nM
EC50 (Canis familiaris): 19.7 nM
SMILES: Fc1ccc2c(c1)CCC(CNCCCNC1=NCCCN1)O2 (stereo not given)

IC50 [1]: 7.94 nM
EC50 (Canis familiaris): 11 nM
SMILES: c1ccc2c(c1)CCC(CNCCCCNC1=NCCCN1)O2 (stereo not given)

IC50 [2]: 5.01 nM
EC50 (Sus scrofa [4]; Sus scrofa): 22.9 nM
EC50 (Sus scrofa [4]): 29.2 nM
EC50 (Canis familiaris): 9.09 nM
SMILES: c1ccc2c(c1)CC[C@H](CNCCCNC1=NCCCN1)O2

IC50 [1]: 5.01 nM
EC50 (Canis familiaris): 2.09 nM
SMILES: COc1cccc2c1OC(CNCCCNC1=NCCCN1)CC2 (stereo not given)

IC50 [1]: 12.6 nM
EC50 (Canis familiaris): 4.53 nM
SMILES: c1ccc2c(c1)CCC(CNCCCNC1=NCCCN1)O2 (stereo not given)

IC50 [1]: 3.98 nM
EC50 (Canis familiaris): 1.93 nM
SMILES: CCc1ccc2c(c1)OC(CNCCCNC1=NCCCN1)CC2 (stereo not given)
